Measurements: patent publication US7482008B1, “Human T cell reactive feline protein (TRFP) isolated from house dust and uses therefor” (Merck Patent GmbH, priority 1989, dated 2009)

Columns and labels:
Assay type in all cases: in vivo, mouse
[1] = test system: mice; experiment: Specificity of peptide-induced unresponsiveness (peptide Y vs MI-05); details: subcutaneous injection in saline
[2] = test system: B6CBAF1 mice; experiment: Oral induction of T cell non-responsiveness, protocol 1; details: fed on days -7, -5, -2
Experimental: (§1) The draining lymph nodes (i.e., inguinal, paraaortic and popliteal), the mesenteric lymph nodes, and the spleen were surgically removed from the animals 10-12 days after antigen challenge. Cells from these tissues were suspended by being forced through a stainless steel mesh with a glass pestle. The cells were washed twice in RPMI 1640 medium with a 1% fetal calf serum (FCS) before culture. All cells were cultured at 37° C. in 5% CO2 in RPMI 1640 with 10% FCS (no. F4884, Sigma), 100 units of penicillin G per ml, 10 μg of streptomycin per ml, 10 mM glutamine, and 0.05 mM 2-mercaptoethanol. […]. Cells were cultured in triplicate, 0.2 ml per well at 4×10^6 cells per ml, in 96-well plates. Supernatants were removed from the wells after 24 hours to test for the production of IL-2 or IL-3 and were frozen to kill any transferred cells or removed after 48 hours for testing IL-4 production. Separate triplicate wells were incubated for 96 hours for the proliferation assay. The supernatants were kept at […] for several days to kill transferred cells.
(§2) Lymph node of spleen cells were plated in a flat bottom 96-well plate (4×10^5/well) in 100 μl medium. Peptide or recombinant protein or control solution (100 μl) is added to each well and the cells allowed to incubate for 1 day at 37° C. On day 2, the cultures were pulsed with [^3H] thymidine (1 μCi per well in 50 μl of medium; 1 Ci=37 GBq) for 4 to 6 hours, and on day 3, the plates were harvested with a 96-well harvester (Tomtec, Orange, Conn.) and counted on a Betaplate scintillation counter (Pharmacia, Upsaala Sweden).
(§3) To measure IL-2, supernatants were tested after thawing for the ability to support the growth of an IL-2-dependent line such as CTLL-2 (University of California, Berkeley). […] After a 24 hour incubation, the cells were pulsed with [^3H] thymidine (1 μCi per well in 50 μl of medium; 1 Ci=37 GBq) for 4 to 6 hours and the plates were harvested with a 96-well harvester (Tomtec, Orange, Conn.) and counted on a Betaplate scintillation counter (Pharmacia, Upsaala Sweden).

[3] = test system: Balb/c mice; experiment: Oral rChain 1, single vs multiple doses, protocol 3
Experimental: Five groups of five age-matched Balb/c mice were fed on days −7, −5 and −2 with 250 μg rChain 1 (Groups 1 and 4), 750 μg rChain 1 (Group 2), or with PBS (Groups 3 and 5). On day 0, the mice in Groups 1-3 were challenged with a s.c. injection of 100 μg rChain 1 in CFA, while the mice in Groups 4 and 5 were not challenged. On day 12 the draining and mesenteric lymph nodes and spleens were removed for proliferation, IL-2, IL-4 and TGF-beta assays.
as §1, §2
as §3, with “Berkeley). The cell line was maintained by passage in 10% supernatant of Con A-stimulated (5 μg/ml) rat spleen cells. This cell line is dependent almost exclusively on IL-2 for growth and survival, proliferating only weakly to high doses of recombinant IL-4.” for “Berkeley).”, “Sweden). […]” for “Sweden).”

[4] = test system: Balb/c mice; experiment: Oral rChain 1, IgG and IgE response after repeated challenge, protocol 5; details: oral 250 μg days -7, -5, -2
Experimental: Two groups of five age-matched Balb/c were fed on days −7, −5 and −2 with 250 μg rChain 1 (Group 1) or PBS (Group 2). On day 0, the mice were challenged with 10 μg rChain 1 on alum administered i.p., and on days 47 and 78, the mice were again challenged with 25 μg rChain 1 on alum administered i.p. The antibody response was measured by ELISA (see below).
Subsequent incubations were for 1 hour at 37° C. The wells were washed with PBS containing 0.05% Tween 20 and blocked with 0.5% gelatin in PBS. Sera were diluted in PBS as noted in the individual assay and were incubated in triplicate on the washed plates. After incubation and washing, the bound mouse antibody was detected by incubation with biotinylated goat anti-mouse IgG (Southern Biotechnology Ass.). Streptavidin conjugated to horseradish peroxidase (Southern Biotechnology Associates) was added to detect antigen-bound biotinylated antibody complexes. 3,3′,5,5′-Tetramethylbenzidine peroxidase substrate (Kirkegaard & Perry Labs) was used according to directions supplied, and resulting OD (450 nm) values were determined using an ELISA reader (Bio-Tek model 310, Winooski, Vt.). […]
Antigen-bound IgE was detected similarly except using a biotinylated rat monoclonal antibody specific for mouse IgE (Baniyash et al. (1984) Eur. J. Immunol. 14:799-807). […]

Row | Substance | responses to MI-05 [1] | responsiveness to peptide Y [1] | spleen cell IL-2 production [2] | spleen cell proliferation [2] | proliferation of and production of IL-2 by draining and mesenteric lymph node cells ([2]; challenge 100 μg in CFA) | production of IL-2 by mesenteric lymph node cells ([3]; cultured with rChain 1, Peptide X, and Peptide Y) | spleen cell response to peptide X ([3]; mouse, in vivo) | spleen cell response to rChain 1 and peptide Y ([3]; mouse, in vivo) | draining node response, single oral 750 μg vs several doses of 250 μg ([3]; mouse, in vivo, po) | specific IgG and IgE responses after repeated challenge with rChain 1 in alum [4]
1 | peptide Y: amino acid residues 29-55 from chain 1 of TRFP (SEQ. ID. NO: 18) (KALPVVLENARILKNCVDAKMTEEDKE) | did not affect responses to MI-05 | decreased responsiveness to peptide Y | limited in their ability to produce IL-2 | no effect on spleen cell proliferation | decreased | – | – | – | – | –
2 | recombinant chain 1: recombinant TRFP chain 1 expressed in E. coli | – | – | – | – | – | detectable tolerizing effect | not changed | moderately decreased | more effective | decreases specific IgG and IgE responses
